Test results taken from ChEMBL document CHEMBL4340512, “Discovery of novel triazolo[4,3-b]pyridazin-3-yl-quinoline derivatives as PIM inhibitors” (Eur J Med Chem, 2019).

Assays:
[1] = test system: T47D; test: Antiproliferative activity against human T47D cells incubated for 72 hrs by CellTiter-Glo luminescence assay; assay type: functional
[2] = test system: MV4-11; test: Antiproliferative activity against human MV4-11 cells incubated for 72 hrs by CellTiter-Glo luminescence assay; assay type: functional; conditions: MV4-11, 72 h
[3] = test system: HCT-116; test: Antiproliferative activity against human HCT116 cells incubated for 72 hrs by CellTiter-Glo luminescence assay; assay type: functional; conditions: HCT-116, 72 h
[4] = test system: DU-145; test: Antiproliferative activity against human DU145 cells incubated for 72 hrs by CellTiter-Glo luminescence assay; assay type: functional; conditions: DU-145, 72 h
[5] = test system: MIA PaCa-2; test: Antiproliferative activity against human MIAPaCa2 cells incubated for 72 hrs by CellTiter-Glo luminescence assay; assay type: functional; conditions: MIA PaCa-2, 72 h
[6] = test system: MDA-MB-231; test: Antiproliferative activity against human MDA-MB-231 cells incubated for 72 hrs by CellTiter-Glo luminescence assay; assay type: functional; conditions: MDA-MB-231, 72 h
[7] = test system: U-87 MG; test: Antiproliferative activity against human U87MG cells incubated for 72 hrs by CellTiter-Glo luminescence assay; assay type: functional, U-87MG ATCC
[8] = test system: JeKo-1; test: Antiproliferative activity against human JeKo1 cells incubated for 72 hrs by CellTiter-Glo luminescence assay; assay type: functional; conditions: JeKo-1, 72 h
[9] = test system: SK-MEL19; test: Antiproliferative activity against human SK-MEL-19 cells incubated for 72 hrs by CellTiter-Glo luminescence assay; assay type: functional; conditions: SK-MEL19, 72 h
[10] = test system: Raji; test: Antiproliferative activity against human Raji cells incubated for 72 hrs by CellTiter-Glo luminescence assay; assay type: functional
[11] = test system: PC-3; test: Antiproliferative activity against human PC3 cells incubated for 72 hrs by CellTiter-Glo luminescence assay; assay type: functional; conditions: PC-3, 72 h

Row | GI50 [1] [µM] | GI50 [2] [µM] | GI50 [3] [µM] | GI50 [4] [µM] | GI50 [5] [µM] | GI50 [6] [µM] | GI50 [7] [µM] | GI50 [9] [µM] | GI50 [10] [µM] | GI50 [11] [µM] | SMILES | GI50 [8] [µM]
1 | 40 | 10 | 20 | 20 | 10 | 20 | 10 | 5 | – | – | CS(=O)(=O)CCNCc1ccc(-c2ccc3ncnc(Nc4ccc(OCc5cccc(F)c5)c(Cl)c4)c3c2)o1 [LAPATINIB] | 5
2 | – | – | – | – | – | 30 | – | 30 | 30 | – | CC(=O)c1c(C)c2cnc(Nc3ccc(N4CCNCC4)cn3)nc2n(C2CCCC2)c1=O [PALBOCICLIB] | 30
3 | 3 | 3 | – | – | 12 | 12 | 6 | 6 | – | 3 | CS(=O)(=O)N1CCN(Cc2cc3nc(-c4cccc5[nH]ncc45)nc(N4CCOCC4)c3s2)CC1 [PICTILISIB] | 5
